Literature values, collected in US20190209552A1, “PHARMACEUTICAL COMPOSITION OF [ (3-HYDROXY-4 -PYRON-2-YL) METHYL] -AMINE DERIVATIVES AND DNA DEMETHYLATING AGENTS AND THEIR USE AS ANTI-NEOPLASTIC DRUGS” (UNIVERSITA' DEGLI STUDI DI URBINO "CARLO BO", priority 2016, published 2019).

How the values were obtained:
Ewing's sarcoma [1] = system: Ewing's sarcoma
Ewing's sarcoma [2] = system: Ewing's sarcoma; remark: listed apart in the source

Q: Which efficacy in vitro (Ewing's sarcoma [1]) does the source give for `CN1CCN(Cc2occc(=O)c2O)CCN(C)CCN(Cc2occc(=O)c2O)CC1` [Maltonis, 4(N), 10(N)-bis [(3-hydroxy-4-Pyron-2-yl)methyl]-1,7-dimethyl-1,4,7,10tetraazacyclododecane] here?
A: effective

Q: What about the efficacy in vivo (Ewing's sarcoma [2]) of the same compound?
A: effective
